Measurements from ChEMBL document CHEMBL4806959, “Antagonistic peptides for frizzled-1 and frizzled-2” (2015).
Active and inactive are the calls of the source. The calls are words filed in the database; no cut-off is given here. Residues, ends and D or L forms follow the SMILES beside them.

Tests used:
[1] = target: Frizzled-1 (Homo sapiens) (UniProt Q9UP38); assay: Agonist activity at frizzled-1 (unknown origin) expressed in human HEK293superTOP flash cells by luciferase reporter gene assay; format: functional, cell-based; settings: HEK293
Frizzled-1 (Homo sapiens), sequence (Q9UP38 70-647 limits assumed): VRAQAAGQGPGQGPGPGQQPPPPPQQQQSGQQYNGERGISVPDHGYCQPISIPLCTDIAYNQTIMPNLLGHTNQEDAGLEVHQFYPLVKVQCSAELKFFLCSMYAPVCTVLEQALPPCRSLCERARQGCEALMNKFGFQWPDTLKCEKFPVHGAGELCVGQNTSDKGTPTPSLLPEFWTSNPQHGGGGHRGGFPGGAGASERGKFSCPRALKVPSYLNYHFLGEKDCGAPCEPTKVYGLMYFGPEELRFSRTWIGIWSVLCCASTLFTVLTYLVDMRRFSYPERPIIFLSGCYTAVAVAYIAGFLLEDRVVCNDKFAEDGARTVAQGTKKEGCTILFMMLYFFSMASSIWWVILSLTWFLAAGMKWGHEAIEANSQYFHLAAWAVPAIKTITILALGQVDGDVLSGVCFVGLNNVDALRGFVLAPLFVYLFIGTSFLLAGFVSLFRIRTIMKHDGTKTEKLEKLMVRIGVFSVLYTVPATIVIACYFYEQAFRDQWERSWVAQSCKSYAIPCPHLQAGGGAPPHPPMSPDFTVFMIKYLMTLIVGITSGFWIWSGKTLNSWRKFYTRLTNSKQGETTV

Frizzled-2 [2] = target: T1, Frizzled-2 (Homo sapiens, UniProt Q14332); assay: Agonist activity at frizzled-2 (unknown origin) expressed in human HEK293superTOP flash cells by luciferase reporter gene assay; format: functional, cell-based; settings: hek293
Target sequence in this assay (Q14332 whole entry): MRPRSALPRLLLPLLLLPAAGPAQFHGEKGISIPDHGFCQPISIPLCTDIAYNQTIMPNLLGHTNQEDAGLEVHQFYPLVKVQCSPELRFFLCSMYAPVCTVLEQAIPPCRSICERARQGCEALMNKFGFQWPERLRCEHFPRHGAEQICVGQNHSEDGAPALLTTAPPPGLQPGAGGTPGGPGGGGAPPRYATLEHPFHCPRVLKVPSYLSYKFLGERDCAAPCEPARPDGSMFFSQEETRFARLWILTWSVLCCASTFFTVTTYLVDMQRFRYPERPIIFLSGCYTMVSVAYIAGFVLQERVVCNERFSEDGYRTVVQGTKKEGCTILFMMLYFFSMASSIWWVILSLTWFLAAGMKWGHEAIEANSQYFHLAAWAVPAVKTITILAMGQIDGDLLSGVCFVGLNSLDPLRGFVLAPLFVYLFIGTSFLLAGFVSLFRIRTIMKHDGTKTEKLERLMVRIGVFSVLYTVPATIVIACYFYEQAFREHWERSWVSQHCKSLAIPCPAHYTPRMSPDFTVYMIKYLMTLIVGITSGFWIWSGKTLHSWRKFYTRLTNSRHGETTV

Frizzled-2 [3] = target: T1, Frizzled-2; assay: Antagonist activity at Wnt3a-stimulated frizzled-2 (unknown origin) expressed in human HEK293superTOP flash cells incubated for 24 hrs by luciferase reporter gene assay; format: functional, cell-based; settings: HEK293
Target sequence in this assay (Q14332 24-565 limits assumed): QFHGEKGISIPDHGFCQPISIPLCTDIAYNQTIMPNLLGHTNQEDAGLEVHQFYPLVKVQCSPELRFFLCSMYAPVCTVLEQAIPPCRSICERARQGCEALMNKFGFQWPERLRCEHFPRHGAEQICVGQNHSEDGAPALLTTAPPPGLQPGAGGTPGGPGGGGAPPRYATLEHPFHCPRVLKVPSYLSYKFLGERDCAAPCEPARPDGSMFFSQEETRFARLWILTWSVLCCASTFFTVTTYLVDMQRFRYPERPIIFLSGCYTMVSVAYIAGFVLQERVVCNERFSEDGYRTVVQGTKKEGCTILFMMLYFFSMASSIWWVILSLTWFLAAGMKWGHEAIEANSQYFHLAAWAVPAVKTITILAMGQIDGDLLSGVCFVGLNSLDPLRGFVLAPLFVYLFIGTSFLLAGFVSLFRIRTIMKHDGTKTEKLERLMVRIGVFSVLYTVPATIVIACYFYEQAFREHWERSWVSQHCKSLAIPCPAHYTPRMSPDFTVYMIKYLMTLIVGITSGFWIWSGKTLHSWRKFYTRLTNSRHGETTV

[4] = target: Frizzled-1 (Homo sapiens) (UniProt Q9UP38); assay: Antagonist activity at Wnt3a-stimulated frizzled-1 (unknown origin) expressed in human HEK293superTOP flash cells incubated for 24 hrs by luciferase reporter gene assay; format: functional, cell-based; settings: HEK293
[5] = target: Frizzled-2 (Rattus norvegicus) (UniProt Q08464); assay: Antagonist activity at Wnt3a-stimulated rat frizzled-2 expressed in African green monkey COS7 cells up to 10 uM incubated for 24 hrs by luciferase reporter gene assay; format: cell-based; settings: dose microM <=10, time 24.0 hrs
Frizzled-2 (Rattus norvegicus), sequence (Q08464 29-570 limits assumed): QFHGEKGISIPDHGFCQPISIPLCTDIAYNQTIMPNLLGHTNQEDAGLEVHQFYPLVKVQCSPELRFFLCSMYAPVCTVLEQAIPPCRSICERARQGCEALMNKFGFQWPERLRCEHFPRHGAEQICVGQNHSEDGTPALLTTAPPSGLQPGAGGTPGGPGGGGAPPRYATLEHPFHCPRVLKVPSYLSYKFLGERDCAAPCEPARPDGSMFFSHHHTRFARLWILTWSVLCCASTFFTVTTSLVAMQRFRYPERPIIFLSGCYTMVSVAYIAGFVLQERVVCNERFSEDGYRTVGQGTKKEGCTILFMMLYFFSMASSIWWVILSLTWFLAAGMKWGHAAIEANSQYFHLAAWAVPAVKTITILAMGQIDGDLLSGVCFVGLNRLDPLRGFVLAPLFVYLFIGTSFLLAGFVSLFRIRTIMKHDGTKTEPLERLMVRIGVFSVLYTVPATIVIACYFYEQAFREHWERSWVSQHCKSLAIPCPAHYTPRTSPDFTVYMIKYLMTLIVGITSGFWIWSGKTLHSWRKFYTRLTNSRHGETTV

[6] = target: Frizzled-1 (Rattus norvegicus) (UniProt Q08463); assay: Antagonist activity at Wnt3a-stimulated rat frizzled-1 expressed in African green monkey COS7 cells up to 10 uM incubated for 24 hrs by luciferase reporter gene assay; format: cell-based; settings: dose microM <=10, time 24.0 hrs
Frizzled-1 (Rattus norvegicus), sequence (Q08463 whole entry): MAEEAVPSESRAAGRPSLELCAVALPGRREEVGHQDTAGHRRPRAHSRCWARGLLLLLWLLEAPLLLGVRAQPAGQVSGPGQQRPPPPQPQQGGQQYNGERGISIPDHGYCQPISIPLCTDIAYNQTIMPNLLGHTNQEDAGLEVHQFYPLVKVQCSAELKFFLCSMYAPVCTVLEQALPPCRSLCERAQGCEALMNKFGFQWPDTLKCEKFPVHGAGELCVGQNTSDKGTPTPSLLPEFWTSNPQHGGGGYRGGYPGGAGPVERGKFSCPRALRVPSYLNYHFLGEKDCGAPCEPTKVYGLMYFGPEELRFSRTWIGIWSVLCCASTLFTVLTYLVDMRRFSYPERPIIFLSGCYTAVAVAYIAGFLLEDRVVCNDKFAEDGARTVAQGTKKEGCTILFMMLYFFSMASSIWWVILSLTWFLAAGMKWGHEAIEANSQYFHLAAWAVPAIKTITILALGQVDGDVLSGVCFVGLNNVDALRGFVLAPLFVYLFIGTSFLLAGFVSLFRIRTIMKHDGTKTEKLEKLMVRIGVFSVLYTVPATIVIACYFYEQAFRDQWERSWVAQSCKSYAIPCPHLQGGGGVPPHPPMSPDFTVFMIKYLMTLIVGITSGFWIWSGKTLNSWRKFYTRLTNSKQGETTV

[7] = target: Frizzled-2 (Rattus norvegicus) (UniProt Q08464); assay: Antagonist activity at Wnt3a-stimulated rat frizzled-2 expressed in CHO cells up to 10 uM incubated for 24 hrs by luciferase reporter gene assay; format: cell-based; settings: dose microM <=10, time 24.0 hrs
Frizzled-2 [8] = target: T1, Frizzled-2; assay: Antagonist activity at Wnt3a-stimulated frizzled-2 (unknown origin) expressed in human HEK293superTOP flash cells at 10 nM incubated for 24 hrs by luciferase reporter gene assay; format: functional, cell-based; settings: HEK293
Target sequence in this assay (Q14332 24-565 limits assumed): as the sequence (Q14332 24-565 limits assumed) above

[9] = target: Frizzled-1 (Homo sapiens) (UniProt Q9UP38); assay: Antagonist activity at Wnt3a-stimulated frizzled-1 (unknown origin) expressed in human HEK293superTOP flash cells at 10 nM incubated for 24 hrs by luciferase reporter gene assay; format: functional, cell-based; settings: HEK293
[10] = target: Frizzled-1 (Rattus norvegicus) (UniProt Q08463); assay: Antagonist activity at Wnt3a-stimulated rat frizzled-1 expressed in CHO cells up to 10 uM incubated for 24 hrs by luciferase reporter gene assay; format: cell-based; settings: dose microM <=10, time 24.0 hrs
[11] = target: Frizzled-2 (Rattus norvegicus) (UniProt Q08464); assay: Agonist activity at rat frizzled-2 expressed in human HEK293superTOP flash cells by luciferase reporter gene assay; format: cell-based; settings: HEK293
[12] = target: Frizzled-1 (Rattus norvegicus) (UniProt Q08463); assay: Agonist activity at rat frizzled-1 expressed in CHO cells by luciferase reporter gene assay; format: cell-based
[13] = target: Frizzled-2 (Rattus norvegicus) (UniProt Q08464); assay: Agonist activity at rat frizzled-2 expressed in African green monkey COS7 cells by luciferase reporter gene assay; format: cell-based
[14] = target: Frizzled-2 (Rattus norvegicus) (UniProt Q08464); assay: Agonist activity at rat frizzled-2 expressed in CHO cells by luciferase reporter gene assay; format: cell-based
[15] = target: Frizzled-1 (Rattus norvegicus) (UniProt Q08463); assay: Agonist activity at rat frizzled-1 expressed in human HEK293superTOP flash cells by luciferase reporter gene assay; format: cell-based; settings: HEK293
[16] = target: Frizzled-1 (Rattus norvegicus) (UniProt Q08463); assay: Agonist activity at rat frizzled-1 expressed in African green monkey COS7 cells by luciferase reporter gene assay; format: cell-based

Activity [1] | EC50 (Frizzled-2 [2]) | inhibition (Frizzled-2 [3]) | inhibition [4] | inhibition [5] | inhibition [6] | inhibition [7] | inhibition (Frizzled-2 [8]) | inhibition [9] | inhibition [10] | Structure (SMILES) | other results
inactive | Not Active | inactive | inactive | – | – | – | – | – | – | CC(=O)N[C@@H](CS)C(=O)N[C@@H](CCCCN)C(=O)N[C@@H](CS)C(=O)N[C@@H](Cc1cnc[nH]1)C(=O)NCC(=O)N[C@H](C(=O)N[C@@H](CO)C(=O)NCC(=O)N[C@@H](CO)C(=O)N[C@@H](CS)C(=O)N[C@H](C(=O)N[C@H](C(=O)N[C@@H](CCCCN)C(=O)N[C@H](C(=O)N[C@@H](CS)C(=O)N[C@@H](Cc1c[nH]c2ccccc12)C(N)=O)[C@@H](C)O)C(C)C)[C@@H](C)O)C(C)C (Ac-CKCHGVSGSCTVKTCW-NH2) | –
inactive | Not Active | inactive | inactive | – | – | – | – | – | – | CSCC[C@H](NC(=O)CNC(=O)[C@H](CO)NC(=O)[C@H](CCCCN)NC(=O)[C@H](CC(N)=O)NC(=O)[C@H](CS)NC(C)=O)C(=O)N[C@@H](CC(=O)O)C(=O)NCC(=O)N[C@@H](CS)C(=O)N[C@@H](CCC(=O)O)C(=O)N[C@@H](CC(C)C)C(N)=O (Ac-CNKSGMDGCEL-NH2) | –
– | – | – | – | inactive | inactive | inactive | inactive | inactive | inactive | CSCC[C@H](NC(=O)CNC(=O)[C@H](CCC(=O)O)NC(=O)[C@H](CO)NC(=O)[C@@H](NC(=O)[C@H](CCCCN)NC(=O)[C@H](CC(N)=O)NC(=O)[C@H](CS)NC(C)=O)[C@@H](C)O)C(=O)N[C@@H](CC(=O)O)C(=O)NCC(=O)N[C@@H](CS)C(=O)N[C@@H](C)C(=O)N[C@@H](C)C(N)=O (Ac-CNKTSEGMDGCAA-NH2) | –
– | – | – | – | inactive | inactive | inactive | inactive | inactive | inactive | CSCC[C@H](NC(=O)CNC(=O)[C@H](CCC(=O)O)NC(=O)[C@H](CO)NC(=O)[C@@H](NC(=O)[C@H](CCCCN)NC(=O)[C@H](CC(N)=O)NC(=O)[C@H](CS)NC(C)=O)[C@@H](C)O)C(=O)N[C@@H](CC(=O)O)C(=O)NCC(=O)N[C@@H](CS)C(=O)N[C@@H](C)C(=O)N[C@@H](CC(C)C)C(N)=O (Ac-CNKTSEGMDGCAL-NH2) | –
– | – | – | – | inactive | inactive | inactive | inactive | inactive | inactive | CSCC[C@H](NC(=O)CNC(=O)[C@H](CCC(=O)O)NC(=O)[C@H](CO)NC(=O)[C@@H](NC(=O)[C@H](CCCCN)NC(=O)[C@H](CC(N)=O)NC(=O)[C@H](CS)NC(C)=O)[C@@H](C)O)C(=O)N[C@@H](CC(=O)O)C(=O)NCC(=O)N[C@@H](CS)C(=O)N[C@@H](CCC(=O)O)C(=O)N[C@@H](C)C(N)=O (Ac-CNKTSEGMDGCEA-NH2) | –
inactive | Not Active | inactive | inactive | – | – | – | – | – | – | CC(=O)N[C@@H](CC(=O)O)C(=O)N[C@@H](CC(C)C)C(=O)N[C@H](C(=O)N[C@@H](Cc1ccc(O)cc1)C(=O)N[C@@H](Cc1ccccc1)C(=O)N[C@@H](CCC(=O)O)C(=O)N[C@@H](CC(C)C)C(=O)N[C@@H](CO)C(=O)N1CCC[C@H]1C(=O)N[C@@H](CC(=O)O)C(=O)N[C@@H](Cc1ccccc1)C(=O)N[C@@H](CS)C(=O)N[C@@H](C)C(N)=O)C(C)C (Ac-DLVYFELSPDFCA-NH2) | –
inactive | Not Active | inactive | inactive | – | – | – | – | – | – | CC[C@H](C)[C@H](NC(=O)[C@H](CC(N)=O)NC(=O)[C@H](CC(=O)O)NC(=O)[C@H](CO)NC(=O)[C@H](CS)NC(=O)[C@H](CCC(=O)O)NC(=O)CNC(=O)[C@H](Cc1c[nH]c2ccccc12)NC(=O)[C@H](CCC(=O)O)NC(=O)[C@H](Cc1c[nH]c2ccccc12)NC(=O)[C@H](CC(=O)O)NC(=O)CNC(C)=O)C(N)=O (Ac-GDWEWGECSDNI-NH2) | –
– | – | – | – | – | – | – | – | – | – | CC[C@H](C)[C@H](NC(=O)CNC(C)=O)C(=O)N[C@@H](CCCCN)C(=O)N[C@@H](CCC(=O)O)C(=O)N[C@@H](CS)C(=O)N[C@@H](CCC(N)=O)C(=O)N[C@@H](Cc1ccc(O)cc1)C(=O)N[C@@H](CCC(N)=O)C(=O)N[C@@H](Cc1ccccc1)C(=O)N[C@@H](CCCNC(=N)N)C(=O)N[C@@H](Cc1c[nH]cn1)C(=O)N[C@@H](CCCNC(=N)N)C(=O)N[C@@H](CCCNC(=N)N)C(=O)N[C@@H](Cc1c[nH]c2ccccc12)C(=O)N[C@@H](CC(N)=O)C(=O)N[C@@H](CS)C(=O)N[C@@H](CO)C(=O)N[C@H](C(=O)N[C@H](C(=O)N[C@@H](CC(=O)O)C(N)=O)C(C)C)[C@@H](C)O (Ac-GIKECQYQFRHRRWNCSTVD-NH2) | Activity [11]: inactive; Activity [12]: inactive; Activity [13]: inactive; Activity [14]: inactive; Activity [15]: inactive; Activity [16]: inactive
– | – | – | – | – | – | – | – | – | – | CC(=O)NCC(=O)N[C@@H](CO)C(=O)N[C@@H](CS)C(=O)N[C@@H](CO)C(=O)N[C@@H](CC(C)C)C(=O)N[C@@H](CCCCN)C(=O)N[C@H](C(=O)N[C@@H](CS)C(=O)N[C@@H](Cc1c[nH]c2ccccc12)C(=O)N[C@@H](CC(C)C)C(=O)N[C@@H](CCC(N)=O)C(=O)N[C@@H](CC(C)C)C(=O)N[C@@H](C)C(=O)N[C@@H](CC(=O)O)C(N)=O)[C@@H](C)O (Ac-GSCSLKTCWLQLAD-NH2) | Activity [11]: inactive; Activity [12]: inactive; Activity [13]: inactive; Activity [14]: inactive; Activity [15]: inactive; Activity [16]: inactive
inactive | Not Active | inactive | inactive | – | – | – | – | – | – | CC(=O)NCC(=O)N[C@@H](CO)C(=O)N[C@@H](CCCCN)C(=O)NCC(=O)N[C@H](C(=O)N[C@@H](CCC(N)=O)C(=O)NCC(=O)N[C@@H](CCCNC(=N)N)C(=O)N[C@@H](C)C(=O)N[C@@H](CS)C(=O)N[C@@H](CC(N)=O)C(N)=O)[C@@H](C)O (Ac-GSKGTQGRACN-NH2) | –
inactive | Not Active | inactive | inactive | – | – | – | – | – | – | CC[C@H](C)[C@H](NC(C)=O)C(=O)N[C@@H](CCC(=O)O)C(=O)N[C@@H](CCC(=O)O)C(=O)N[C@@H](CS)C(=O)N[C@@H](CCC(N)=O)C(=O)N[C@@H](Cc1cnc[nH]1)C(=O)N[C@@H](CCC(N)=O)C(=O)N[C@@H](Cc1ccccc1)C(=O)N[C@@H](CCCNC(=N)N)C(=O)N[C@@H](CC(=O)O)C(=O)N[C@@H](CCCNC(=N)N)C(=O)N[C@@H](CCCNC(=N)N)C(=O)N[C@@H](Cc1c[nH]c2ccccc12)C(=O)N[C@@H](CC(N)=O)C(=O)N[C@@H](CS)C(N)=O (Ac-IEECQHQFRDRRWNC-NH2) | –
inactive | Not Active | inactive | inactive | – | – | – | – | – | – | CSCC[C@H](NC(C)=O)C(=O)N[C@@H](CC(N)=O)C(=O)N[C@@H](CCCNC(=N)N)C(=O)N[C@@H](Cc1cnc[nH]1)C(=O)N[C@@H](CC(N)=O)C(=O)N[C@@H](CC(N)=O)C(=O)N[C@@H](CCC(=O)O)C(=O)N[C@@H](C)C(=O)NCC(=O)N[C@@H](CCCNC(=N)N)C(N)=O (Ac-MNRHNNEAGR-NH2) | –
– | – | – | – | inactive | inactive | inactive | inactive | inactive | inactive | CC[C@H](C)[C@H](NC(=O)CNC(=O)[C@H](Cc1cnc[nH]1)NC(=O)[C@H](CO)NC(=O)[C@H](CO)NC(=O)[C@@H](NC(=O)[C@H](CC(N)=O)NC(=O)[C@@H](N)CS)C(C)C)C(=O)N[C@@H](CC(=O)O)C(=O)NCC(=O)N[C@@H](CS)C(=O)N[C@@H](CC(=O)O)C(=O)N[C@@H](CC(C)C)C(=O)O (H-CNVSSHGIDGCDL-OH) | –
